Results reported in the CheMixHub viscosity set.

Assay: xn = mol fraction of the nth substance listed

CCCCOC(C)=O + Cc1ccc(C)cc1
viscosity [mPa·s], 101 kPa
Conditions | 298.15 K | 308.15 K
x1 = 0.0459 | 0.615 | 0.537
x1 = 0.1511 | 0.615 | 0.54
x1 = 0.2505 | 0.618 | 0.543
x1 = 0.3511 | 0.621 | 0.547
x1 = 0.4477 | 0.626 | 0.552
x1 = 0.4948 | 0.628 | 0.555
x1 = 0.55 | 0.632 | 0.558
x1 = 0.6515 | 0.639 | 0.565
x1 = 0.7509 | 0.647 | 0.572
x1 = 0.8517 | 0.657 | 0.58
x1 = 0.9445 | 0.667 | 0.589

C=COC(C)=O + Cc1cccc(C)c1
viscosity [mPa·s], 101 kPa
Conditions | x1 = 0.1482 | x1 = 0.2434 | x1 = 0.3456 | x1 = 0.4518 | x1 = 0.5741 | x1 = 0.6832 | x1 = 0.7598 | x1 = 0.8817 | x1 = 0.9602
303.15 K | 0.52 | 0.502 | 0.483 | 0.465 | 0.445 | 0.428 | 0.414 | 0.401 | 0.392
313.15 K | 0.469 | 0.452 | 0.434 | 0.416 | 0.399 | 0.383 | 0.37 | 0.358 | 0.35

CCCCOC(C)=O + Cc1cccc(C)c1
viscosity [mPa·s], 101 kPa
Conditions | 298.15 K | 308.15 K
x1 = 0.0468 | 0.583 | 0.528
x1 = 0.1506 | 0.587 | 0.531
x1 = 0.2497 | 0.592 | 0.535
x1 = 0.3502 | 0.598 | 0.539
x1 = 0.4477 | 0.606 | 0.545
x1 = 0.4941 | 0.61 | 0.548
x1 = 0.549 | 0.615 | 0.551
x1 = 0.6505 | 0.625 | 0.559
x1 = 0.7501 | 0.637 | 0.568
x1 = 0.8511 | 0.651 | 0.577
x1 = 0.9409 | 0.664 | 0.587

CC(C)c1ccccc1 + Cc1ccccc1
Conditions | viscosity [mPa·s]
293.15 K, 101.33 kPa, x2 = 0.2846 | 0.727
293.15 K, 101.33 kPa, x2 = 0.5253 | 0.676
293.15 K, 101.33 kPa, x2 = 0.6998 | 0.644
293.15 K, 101.33 kPa, x2 = 0.856 | 0.612
298.15 K, 101.3 kPa, x2 = 0.1169 | 0.6671
298.15 K, 101.3 kPa, x2 = 0.2596 | 0.643
298.15 K, 101.3 kPa, x2 = 0.3951 | 0.6203
298.15 K, 101.3 kPa, x2 = 0.508 | 0.6016
298.15 K, 101.3 kPa, x2 = 0.605 | 0.5854
298.15 K, 101.3 kPa, x2 = 0.7505 | 0.5615
298.15 K, 101.3 kPa, x2 = 0.8459 | 0.5459
298.15 K, 101.3 kPa, x2 = 0.9474 | 0.5288
303.15 K, 101.33 kPa, x2 = 0.2846 | 0.638
303.15 K, 101.33 kPa, x2 = 0.5253 | 0.597
303.15 K, 101.33 kPa, x2 = 0.6998 | 0.57
303.15 K, 101.33 kPa, x2 = 0.856 | 0.544
313.15 K, 101.33 kPa, x2 = 0.2846 | 0.569
313.15 K, 101.33 kPa, x2 = 0.5253 | 0.533
313.15 K, 101.33 kPa, x2 = 0.6998 | 0.509
313.15 K, 101.33 kPa, x2 = 0.856 | 0.485
323.15 K, 101.33 kPa, x2 = 0.2846 | 0.507
323.15 K, 101.33 kPa, x2 = 0.5253 | 0.477
323.15 K, 101.33 kPa, x2 = 0.6998 | 0.458
323.15 K, 101.33 kPa, x2 = 0.856 | 0.437

CCCCOC(C)=O + Cc1ccccc1
viscosity [mPa·s], 101 kPa
Conditions | 293.15 K | 298.15 K | 303.15 K | 308.15 K | 313.15 K | 318.15 K
x1 = 0.0478 | – | 0.552 | – | 0.499 | – | –
x1 = 0.1494 | – | 0.556 | – | 0.503 | – | –
x1 = 0.249 | – | 0.563 | – | 0.509 | – | –
x1 = 0.348 | – | 0.571 | – | 0.515 | – | –
x1 = 0.4469 | – | 0.581 | – | 0.523 | – | –
x1 = 0.501 | – | 0.587 | – | 0.528 | – | –
x1 = 0.5488 | – | 0.593 | – | 0.532 | – | –
x1 = 0.6468 | – | 0.607 | – | 0.543 | – | –
x1 = 0.7365 | – | 0.621 | – | 0.554 | – | –
x1 = 0.8683 | – | 0.645 | – | 0.572 | – | –
x1 = 0.9671 | – | 0.666 | – | 0.588 | – | –
x2 = 0.1024 | 0.7105 | 0.6642 | 0.6223 | 0.5852 | 0.5502 | 0.5173
x2 = 0.205 | 0.6942 | 0.6504 | 0.6104 | 0.5742 | 0.5405 | 0.5084
x2 = 0.3107 | 0.6786 | 0.6362 | 0.5973 | 0.5624 | 0.5294 | 0.4996
x2 = 0.4031 | 0.6661 | 0.6247 | 0.587 | 0.5526 | 0.5208 | 0.4908
x2 = 0.4615 | 0.6566 | 0.6161 | 0.579 | 0.546 | 0.514 | 0.4858
x2 = 0.5069 | 0.6517 | 0.6115 | 0.5746 | 0.5408 | 0.5103 | 0.4814
x2 = 0.5564 | 0.6439 | 0.6045 | 0.5683 | 0.5352 | 0.5051 | 0.4769
x2 = 0.614 | 0.6371 | 0.5984 | 0.5628 | 0.5301 | 0.5003 | 0.4725
x2 = 0.7101 | 0.6252 | 0.5864 | 0.5515 | 0.5197 | 0.4913 | 0.4644
x2 = 0.8103 | 0.6123 | 0.5753 | 0.5419 | 0.5103 | 0.4833 | 0.4562
x2 = 0.908 | 0.6017 | 0.5667 | 0.5337 | 0.5035 | 0.4761 | 0.4496

C=COC(C)=O + Cc1ccccc1C
viscosity [mPa·s], 101 kPa
Conditions | x1 = 0.1492 | x1 = 0.2538 | x1 = 0.3604 | x1 = 0.4517 | x1 = 0.5641 | x1 = 0.6689 | x1 = 0.7705 | x1 = 0.8616 | x1 = 0.9508
303.15 K | 0.632 | 0.594 | 0.558 | 0.529 | 0.494 | 0.463 | 0.435 | 0.413 | 0.394
313.15 K | 0.57 | 0.537 | 0.505 | 0.478 | 0.446 | 0.417 | 0.391 | 0.37 | 0.353

CCCCOC(C)=O + Cc1ccccc1C
viscosity [mPa·s], 101 kPa
Conditions | 298.15 K | 308.15 K
x1 = 0.0481 | 0.751 | 0.652
x1 = 0.1501 | 0.735 | 0.64
x1 = 0.2484 | 0.722 | 0.63
x1 = 0.3482 | 0.71 | 0.621
x1 = 0.4474 | 0.7 | 0.614
x1 = 0.5002 | 0.696 | 0.61
x1 = 0.5477 | 0.692 | 0.607
x1 = 0.657 | 0.685 | 0.602
x1 = 0.7456 | 0.68 | 0.599
x1 = 0.8459 | 0.677 | 0.596
x1 = 0.9461 | 0.675 | 0.594
